Assay results reported in ChEMBL document CHEMBL5352386 (Eur J Med Chem, 2022).
The source made the active and inactive calls. The calls are words filed in the database; no cut-off is given here.

Columns and labels:
[1] = Metabolic stability in human liver microsomes assessed as parent compound remaining at 1 uM incubated upto 50 mins in presence of NADPH by LC/MS/MS analysis; format: ADME, Microsome; settings: read-out: Stability
SH-SY5Y [2] = experiment: Neuroprotective activity against Abeta1-42 induced toxicity in human SH-SY5Y cells at 1 to 5 uM preincubated for 1 hr with compound followed by co-incubation with Abeta1-42 and measured after 24 hrs by MTT assay; format: functional, cell-based; settings: dose 1-5 µM, time 25.0 hrs
[3] = Cmax in ICR mouse plasma administered as oral dose by LC/MS/MS analysis; format: ADME; set-up: route po
[4] = AUC (0 to t) in Sprague-Dawley rat at 10 mg/kg, iv measured upto 1440 mins by LC/MS/MS analysis; format: ADME, organism-based; set-up: time < 1440 min, dose 10 mg/kg, route iv; settings: in vivo
[5] = Ratio of drug exposure in plasma to brain in ICR mouse measured after 240 by LC/MS/MS analysis; format: ADME, cell-free; settings: in vivo, 4 h, time 240 min
Mus musculus [6] = experiment: Neuroprotective activity against Abeta42 induced cognition impairement in AD ICR mouse model assessed as increase in body weight at 10 mg/kg measured after 21 days; format: functional, organism-based; settings: time 21.0 day
Cholinesterase [7] = target: Cholinesterase (Homo sapiens, UniProt P06276); experiment: Inhibition of human BuChE using butyrylthiocholine iodide as substrate incubated for 10 mins followed by substrate addition by DTNB-reagent based Ellman's colorimetric assay
SH-SY5Y [8] = experiment: Neuroprotective activity against glutamate induced toxicity in human SH-SY5Y cells assessed as effect on cell survival rate at 10 to 20 uM preincubated for 1 hr with compound followed by co-incubation with glutamate and measured after 24 hrs by MTT assay; format: functional, cell-based; settings: dose 10-20 µM, time 25.0 hrs
SH-SY5Y [9] = experiment: Cytotoxicity against human SH-SY5Y cells assessed as survival rate at 100 uM measured after 24 hrs by MTT assay relative to control; format: functional; settings: read-out: Survival
[10] = Half life in Sprague-Dawley rat at 10 mg/kg, iv measured upto 1440 mins by LC/MS/MS analysis; format: ADME, organism-based; settings: in vivo
[11] = Drug uptake in ICR mouse central nervous system; format: ADME, tissue-based; settings: in vivo
SH-SY5Y [12] = experiment: Induction of antioxidant effect in human SH-SY5Y cells assessed as prevention of Abeta1-42 induced ROS production preincubated for 1 hr with compound followed by Abeta1-42 stimulation and measured after 24 hrs by DCFH-DA staining based inverted fluorescence microscopy analysis; format: functional, cell-based; settings: time 25.0 hrs
[13] = AUC (0 to infinity) in Sprague-Dawley rat at 10 mg/kg, po measured upto 1440 mins by LC/MS/MS analysis; format: ADME, organism-based; set-up: dose 10 mg/kg, time < 1440 min, route po; settings: in vivo
[14] = Ratio of drug exposure in plasma to brain in ICR mouse measured after 10 mins by LC/MS/MS analysis; format: ADME, cell-free; settings: in vivo
PC-12 [15] = experiment: Cytotoxicity against rat PC12 cells assessed as survival rate at 100 uM measured after 24 hrs by MTT assay relative to control; settings: PC-12, 24 h, read-out: Survival
[16] = Tmax in Sprague-Dawley rat at 10 mg/kg, po measured upto 1440 mins by LC/MS/MS analysis; format: ADME, organism-based; settings: in vivo
[17] = Acute toxicity in overnight fasted male ICR mouse assessed as animal death at 1 g/Kg, IG administered as single dose measured upto 15 days; settings: in vivo, po, 1000 mg/kg, 360 h, time < 15 day
[18] = Cmax in ICR mouse brain administered as oral dose by LC/MS/MS analysis; format: ADME, tissue-based; set-up: route po
[19] = Oral bioavailability in Sprague-Dawley rat at 10 mg/kg measured upto 1440 mins by LC/MS/MS analysis; format: ADME, organism-based; settings: in vivo
[20] = Metabolic stability in human liver microsomes assessed as half life at 1 uM incubated upto 50 mins in presence of NADPH by LC/MS/MS analysis; format: ADME, Microsome
[21] = MRT infinity in Sprague-Dawley rat at 10 mg/kg, po measured upto 1440 mins by LC/MS/MS analysis; format: ADME, organism-based; settings: in vivo
Mus musculus [22] = experiment: Neuroprotective activity against Abeta42 induced cognition impairement in AD ICR mouse model assessed as increase in ghrelin level in mouse plasma administered as oral dose for 21 days; format: functional, organism-based; settings: time 21.0 day
BV-2 = experiment: Induction of antioxidant effect in mouse BV-2 cells assessed as prevention of LPS-induced ROS production preincubated for 1 hr with compound followed by LPS stimulation and measured after 24 hrs by DCFH-DA staining based inverted fluorescence microscopy analysis; format: functional, cell-based; settings: time 25.0 hrs
Mus musculus [23] = experiment: Neuroprotective activity against Abeta42 induced cognition impairement in AD mouse model assessed as reduction in latency time to platform at 10 mg/kg, po measured after 14 days by Morris water maze analysis; format: functional, organism-based; settings: time 14.0 day
[24] = Acute toxicity in overnight fasted female ICR mouse assessed as abnormal behavior at 1 g/Kg, IG administered as single dose measured upto 15 days; settings: in vivo, po, 1000 mg/kg, 360 h, time < 15 day
[25] = Acute toxicity in overnight fasted male ICR mouse assessed as abnormal behavior at 1 g/Kg, IG administered as single dose measured upto 15 days; settings: in vivo, po, 1000 mg/kg, 360 h, time < 15 day
[26] = Ratio of drug exposure in plasma to brain in ICR mouse measured after 480 mins by LC/MS/MS analysis; format: ADME, cell-free; settings: in vivo, 8 h
[27] = Cytotoxicity against mouse BV-2 cells assessed as inhibition of cell growth measured after 24 hrs by MTT assay; format: toxicity, cell-based
[28] = AUC (0 to t) in ICR mouse brain administered as oral dose by LC/MS/MS analysis; format: ADME, tissue-based; set-up: route po
[29] = Acute toxicity in overnight fasted male ICR mouse assessed as body weight loss at 1 g/Kg, IG administered as single dose measured upto 15 days; settings: in vivo, po, 1000 mg/kg, 360 h, time < 15 day
PC-12 [30] = experiment: Cytoprotective activity against H2O2 induced cell damage in rat PC12 cells at 10 to 20 uM preincubated for 1 hr with compound followed by co-incubation with H2O2 and measured after 24 hrs by MTT assay; format: functional, cell-based; settings: dose 10-20 µM, time 25.0 hrs
[31] = Ratio of drug exposure in plasma to brain in ICR mouse measured after 60 mins by LC/MS/MS analysis; format: ADME, cell-free; settings: in vivo, 1 h
Cholinesterase [32] = target: Cholinesterase (Equus caballus, UniProt P81908); experiment: Inhibition of equine serum BuChE using butyrylthiocholine iodide as substrate incubated for 10 mins followed by substrate addition by DTNB-reagent based Ellman's colorimetric assay
[33] = Ratio of drug exposure in plasma to brain in ICR mouse measured after 20 mins by LC/MS/MS analysis; format: ADME, cell-free; settings: in vivo
[34] = Ratio of drug exposure in plasma to brain in ICR mouse measured after 30 mins by LC/MS/MS analysis; format: ADME, cell-free; settings: in vivo, 0.5 h
[35] = Half life in Sprague-Dawley rat at 10 mg/kg, po measured upto 1440 mins by LC/MS/MS analysis; format: ADME, organism-based; settings: in vivo
[36] = MRT infinity in Sprague-Dawley rat at 10 mg/kg, iv measured upto 1440 mins by LC/MS/MS analysis; format: ADME, organism-based; settings: in vivo
[37] = Acute toxicity in overnight fasted female ICR mouse assessed as body weight loss at 1 g/Kg, IG administered as single dose measured upto 15 days; settings: in vivo, po, 1000 mg/kg, 360 h, time < 15 day
Mus musculus [38] = experiment: Neuroprotective activity against Abeta42 induced cognition impairement in AD ICR mouse model assessed as increase in ghrelin level in mouse brain administered as oral dose for 21 days; format: functional, organism-based; settings: time 21.0 day
[39] = AUC (0 to infinity) in Sprague-Dawley rat at 10 mg/kg, iv measured upto 1440 mins by LC/MS/MS analysis; format: ADME, organism-based; set-up: dose 10 mg/kg, time < 1440 min, route iv; settings: in vivo
[40] = AUC (0 to t) in Sprague-Dawley rat at 10 mg/kg, po measured upto 1440 mins by LC/MS/MS analysis; format: ADME, organism-based; set-up: time < 1440 min, dose 10 mg/kg, route po; settings: in vivo
[41] = Ratio of Cmax in ICR mouse brain to Cmax in ICR mouse plasma; format: ADME, cell-free
L02 = experiment: Cytotoxicity against human L02 cells assessed as survival rate at 100 uM measured after 24 hrs by MTT assay relative to control; format: functional; settings: read-out: Survival
[42] = Ratio of drug exposure in plasma to brain in ICR mouse measured after 120 mins by LC/MS/MS analysis; format: ADME, cell-free; settings: in vivo, 2 h
[43] = Ratio of AUCt in ICR mouse brain to AUCt in ICR mouse plasma; format: ADME, cell-free
SH-SY5Y [44] = experiment: Neuroprotective activity against glutamate induced toxicity in human SH-SY5Y cells at low concentration preincubated for 1 hr with compound followed by co-incubation with glutamate and measured after 24 hrs by MTT assay; format: functional, cell-based; settings: time 25.0 hrs
[45] = Acute toxicity in overnight fasted female ICR mouse assessed as animal death at 1 g/Kg, IG administered as single dose measured upto 15 days; settings: in vivo, po, 1000 mg/kg, 360 h, time < 15 day
Mus musculus [46] = experiment: Neuroprotective activity against Abeta42 induced cognition impairement in AD mouse model assessed as reduction in confusion of escape trajectory at 10 mg/kg, po measured after 14 days; format: functional, organism-based; settings: time 14.0 day
[47] = Cmax in Sprague-Dawley rat at 10 mg/kg, po measured upto 1440 mins by LC/MS/MS analysis; format: ADME, organism-based; set-up: time < 1440 min, dose 10 mg/kg, route po; settings: in vivo, 24 h
[48] = Cmax in Sprague-Dawley rat at 10 mg/kg, iv measured upto 1440 mins by LC/MS/MS analysis; format: ADME, organism-based; set-up: dose 10 mg/kg, time < 1440 min, route iv; settings: in vivo
[49] = AUC (0 to t) in ICR mouse plasma administered as oral dose by LC/MS/MS analysis; format: ADME; set-up: route po
[50] = Tmax in Sprague-Dawley rat at 10 mg/kg, iv measured upto 1440 mins by LC/MS/MS analysis; format: ADME, organism-based; settings: in vivo
[51] = Cytotoxicity against mouse BV-2 cells assessed as survival rate at 100 uM measured after 24 hrs by MTT assay relative to control; format: toxicity, cell-based; settings: read-out: Survival

Chain of Cholinesterase (Homo sapiens, UniProt P06276) (P06276 whole entry): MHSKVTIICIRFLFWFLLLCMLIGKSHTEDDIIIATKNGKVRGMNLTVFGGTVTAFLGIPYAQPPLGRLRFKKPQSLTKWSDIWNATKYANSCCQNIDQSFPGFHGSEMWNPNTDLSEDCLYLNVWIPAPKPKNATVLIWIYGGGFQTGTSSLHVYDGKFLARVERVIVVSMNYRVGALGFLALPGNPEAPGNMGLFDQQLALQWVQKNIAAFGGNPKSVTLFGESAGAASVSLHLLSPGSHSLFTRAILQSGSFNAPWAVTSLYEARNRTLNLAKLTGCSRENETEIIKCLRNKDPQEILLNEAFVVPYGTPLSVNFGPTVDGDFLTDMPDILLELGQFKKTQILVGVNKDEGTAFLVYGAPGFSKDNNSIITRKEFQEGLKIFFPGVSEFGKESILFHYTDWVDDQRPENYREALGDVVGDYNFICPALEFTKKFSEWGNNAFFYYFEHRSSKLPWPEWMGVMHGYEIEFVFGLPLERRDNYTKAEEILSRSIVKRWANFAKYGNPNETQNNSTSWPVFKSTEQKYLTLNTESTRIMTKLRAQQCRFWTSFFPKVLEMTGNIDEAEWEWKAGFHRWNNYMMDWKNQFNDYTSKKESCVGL
Chain of Cholinesterase (Equus caballus, UniProt P81908) (P81908 whole entry): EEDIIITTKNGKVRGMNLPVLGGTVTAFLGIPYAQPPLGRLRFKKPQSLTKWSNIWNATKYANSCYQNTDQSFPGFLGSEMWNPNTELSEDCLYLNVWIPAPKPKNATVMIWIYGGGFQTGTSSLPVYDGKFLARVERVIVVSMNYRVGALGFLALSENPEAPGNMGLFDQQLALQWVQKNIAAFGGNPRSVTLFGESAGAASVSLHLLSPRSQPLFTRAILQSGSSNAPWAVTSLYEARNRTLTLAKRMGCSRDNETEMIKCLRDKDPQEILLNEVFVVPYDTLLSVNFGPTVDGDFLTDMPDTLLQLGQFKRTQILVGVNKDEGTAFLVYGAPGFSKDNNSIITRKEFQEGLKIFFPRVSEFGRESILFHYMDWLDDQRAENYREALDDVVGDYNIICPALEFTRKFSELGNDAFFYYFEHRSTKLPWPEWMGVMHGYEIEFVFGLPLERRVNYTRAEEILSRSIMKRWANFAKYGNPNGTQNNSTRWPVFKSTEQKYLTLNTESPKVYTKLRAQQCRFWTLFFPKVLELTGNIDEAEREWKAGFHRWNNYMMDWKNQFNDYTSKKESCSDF

N#Cc1cc(Br)cc(NC(=O)Cn2c(-c3nonc3N)nc3ccccc32)c1
remaining at 50 min, 1 µM [1]: 89.7%
Activity (SH-SY5Y [2]): Active
Cmax [3]: 1760 ng/mL
AUC(0-t) at 24 h ([4]; Sprague-Dawley): 860 ng·h/mL
Ratio [5]: 0.27
Activity (Mus musculus [6]): Active
IC50 (Cholinesterase [7]): 45.2 nM
Activity (SH-SY5Y [8]): Active
viability at 100 µM (SH-SY5Y [9]): 57.8%
half-life [10]: 8.87 h
Drug uptake [11]: Active
Activity (SH-SY5Y [12]): Active
AUC(0-inf) [13]: 662 ng·h/mL
Ratio [14]: 13.33
viability at 100 µM (PC-12 [15]): 54.6%
Tmax [16]: 0.158 h
Activity [17]: Non-Toxic
Cmax [18]: 179 ng/mL
bioavailability [19]: 73.4%
half-life at 1 µM [20]: 5.75 h
MRT inf [21]: 11.6 h
Activity (Mus musculus [22]): Active
Activity (BV-2): Active
Activity (Mus musculus [23]): Active
Activity [24]: Non-Toxic
Activity [25]: Non-Toxic
Ratio [26]: 0.88
IC50 at 24 h [27]: 27800 nM
AUC(0-t) [28]: 356 ng·h/mL
Activity [29]: Non-Toxic
Activity (PC-12 [30]): Active
Ratio [31]: 0.27
IC50 (Cholinesterase [32]): 0.15 nM
Ratio [33]: 2.23
Ratio [34]: 0.82
half-life [35]: 5.47 h
MRT inf [36]: 14.1 h
Activity [37]: Non-Toxic
Activity (Mus musculus [38]): Active
AUC(0-inf) ([39]; Sprague-Dawley): 1090 ng·h/mL
AUC(0-t) at 24 h [40]: 628 ng·h/mL
Kp [41]: 0.1
viability at 100 µM (L02): 72.4%
Ratio [42]: 0.54
Kp [43]: 0.31
Activity (SH-SY5Y [44]): Active
Activity [45]: Non-Toxic
Activity (Mus musculus [46]): Active
Cmax [47]: 44.73 ng/mL
Cmax ([48]; Sprague-Dawley, read-out: Cmax): 488 ng/mL
AUC(0-t) [49]: 1160 ng·h/mL

Nc1nonc1-c1nc2ccccc2n1CC(=O)Nc1cnc2ccccc2c1
AUCt ([4]; 24 h): 15662.39 ng·h/mL
Tmax [50]: 1 min
IC50 (Cholinesterase [7]): 50.1 nM
viability at 100 µM (SH-SY5Y [9]): 62.2%
half-life [10]: 2.68 h
AUC(0-inf) [13]: 3780 ng·h/mL
Tmax [16]: 0.18 h
bioavailability [19]: 23.6%
MRT inf [21]: 7.37 h
half-life [35]: 4.74 h
MRT inf [36]: 3.11 h
viability at 24 h, 100 µM [51]: 62.7%
AUC ([39]; 24 h): 15988.79 ng·h/mL
AUC(0-t) at 24 h [40]: 3360 ng·h/mL
viability at 100 µM (L02): 70.6%
Cmax [47]: 975.05 ng/mL
Cmax ([48]; 24 h): 9752.7 ng/mL
